Assay results published in the CheMixHub viscosity set.

Assay: xn = mol fraction of the nth substance listed

C=CC(=O)OCC + c1ccccc1
viscosity [mPa·s], 101 kPa
Conditions | x2 = 0.1283 | x2 = 0.2137 | x2 = 0.3255 | x2 = 0.4115 | x2 = 0.5361 | x2 = 0.6109 | x2 = 0.7033 | x2 = 0.8074 | x2 = 0.9025
298.15 K | 0.531 | 0.533 | 0.537 | 0.541 | 0.55 | 0.558 | 0.568 | 0.579 | 0.591
303.15 K | 0.499 | 0.5 | 0.501 | 0.502 | 0.509 | 0.516 | 0.524 | 0.535 | 0.548
308.15 K | 0.461 | 0.46 | 0.461 | 0.462 | 0.466 | 0.472 | 0.481 | 0.495 | 0.508
313.15 K | 0.412 | 0.41 | 0.411 | 0.412 | 0.415 | 0.42 | 0.431 | 0.444 | 0.458

OCCCCCO + CN(C)C=O
308.15 K, 101 kPa
Conditions | viscosity [mPa·s]
x1 = 0.025 | 0.759
x1 = 0.0483 | 0.826
x1 = 0.1005 | 1.025
x1 = 0.1877 | 1.446
x1 = 0.2971 | 2.284
x1 = 0.388 | 3.676
x1 = 0.4882 | 5.774
x1 = 0.586 | 9.073
x1 = 0.6875 | 14.59
x1 = 0.7802 | 22.71
x1 = 0.9446 | 49.91
x1 = 0.9714 | 56.42

CCOP(=O)(OCC)OCC + CNC=O
298.15 K, 101.3 kPa
Conditions | viscosity [mPa·s]
x1 = 0.0969 | 1.719
x1 = 0.1954 | 1.713
x1 = 0.294 | 1.689
x1 = 0.399 | 1.654
x1 = 0.5004 | 1.625
x1 = 0.5987 | 1.599
x1 = 0.6978 | 1.571
x1 = 0.799 | 1.546
x1 = 0.8929 | 1.524

Clc1ccccc1 + CCCCCC
viscosity [mPa·s], 101.33 kPa
Conditions | x2 = 0.0793 | x2 = 0.1624 | x2 = 0.2494 | x2 = 0.3407 | x2 = 0.4367 | x2 = 0.5377 | x2 = 0.644 | x2 = 0.7562 | x2 = 0.8747
303.15 K | 0.6623 | 0.6095 | 0.5578 | 0.5101 | 0.4658 | 0.4254 | 0.3927 | 0.3549 | 0.3227
313.15 K | 0.6011 | 0.5513 | 0.5124 | 0.4699 | 0.4288 | 0.3946 | 0.3647 | 0.3305 | 0.3021
323.15 K | 0.5314 | 0.4893 | 0.4543 | 0.4164 | 0.3835 | 0.3551 | 0.3268 | 0.2997 | 0.2745

CCCCCCCCCCCCCCCCCCCCCC + CCCCCCC
viscosity [mPa·s], 101.3 kPa
Conditions | x1 = 0.2 | x1 = 0.4 | x1 = 0.479 | x1 = 0.596 | x1 = 0.798
303.2 K | 0.9761 | – | – | – | –
313.2 K | 0.8502 | 1.621 | 2.137 | – | –
323.1 K | 0.7493 | 1.39 | 1.826 | 2.449 | 3.197

CCCCn1cc[n+](C)c1.F[P-](F)(F)(F)(F)F + CS(C)=O
Conditions | viscosity [mPa·s]
298.15 K, 101 kPa, x1 = 0.7812 | 117.5

OCCCCCO + O=C1CCCN1
308.15 K, 101 kPa
Conditions | viscosity [mPa·s]
x1 = 0.479 | 21.15
x1 = 0.9392 | 54.65

Clc1cccc2ccccc12 + CCCCO
viscosity [mPa·s], 101.33 kPa
Conditions | x1 = 0.1002 | x1 = 0.1997 | x1 = 0.2969 | x1 = 0.4016 | x1 = 0.5004 | x1 = 0.599 | x1 = 0.6949 | x1 = 0.8006 | x1 = 0.8969
298.15 K | 2.486 | 2.447 | 2.383 | 2.376 | 2.379 | 2.43 | 2.491 | 2.591 | 2.697
303.15 K | 2.176 | 2.149 | 2.11 | 2.102 | 2.109 | 2.153 | 2.207 | 2.301 | 2.414
308.15 K | 1.927 | 1.894 | 1.865 | 1.854 | 1.864 | 1.914 | 1.977 | 2.059 | 2.173

C[N+](C)(C)CC(=O)O.[Cl-] + O
viscosity [mPa·s], 101 kPa
Conditions | 293.15 K | 298.15 K | 303.15 K | 308.15 K | 313.15 K | 318.15 K
x1 = 0.000448 | 1.007 | 0.8948 | 0.8017 | 0.7233 | 0.6568 | –
x1 = 0.000896 | 1.011 | 0.8992 | 0.8061 | 0.7276 | 0.661 | 0.6055
x1 = 0.00135 | 1.016 | 0.9038 | 0.8106 | 0.7321 | 0.6654 | –
x1 = 0.0018 | 1.02 | 0.9082 | 0.815 | 0.7365 | 0.6697 | 0.614
x1 = 0.002247 | 1.025 | 0.9126 | 0.8193 | 0.7408 | 0.674 | 0.6184
x1 = 0.002691 | 1.029 | 0.917 | 0.8237 | 0.7452 | 0.6783 | 0.6227
x1 = 0.003581 | 1.038 | 0.9259 | 0.8324 | 0.7539 | 0.687 | 0.6313
x1 = 0.004484 | 1.048 | 0.9348 | 0.8413 | 0.7627 | 0.6956 | 0.6401
x1 = 0.005363 | 1.056 | 0.9435 | 0.85 | 0.7712 | 0.7043 | 0.6486
x1 = 0.006268 | 1.066 | 0.9526 | 0.859 | 0.7799 | 0.713 | 0.6575
x1 = 0.007163 | 1.075 | 0.9616 | 0.8677 | 0.789 | 0.7217 | 0.6664
